For seven compounds, Ki and IC50 results are on record in ChEMBL document CHEMBL1151596, “7-Oxa[2.2.1]bicycloheptane-2,3-dicarboxylic acid derivatives as phosphatase inhibitors” (Bioorg Med Chem Lett, 1997).

Assay [1] is described as follows: Compound was tested for inhibition of protein phosphatase 2B (PP2B, Calcineurin).
Assay [2] is described as follows: Compound was tested for inhibition of protein phosphatase 2A (PP2A).
In another assay the test system is Jurkat. Description: Effect on the transcription and release of IL-2 in a reporter-gene assay (RGA). In kind it is functional, cell-based. The settings on record: Homo sapiens.
The nature of assay [3]: Effect on the transcription and release of thymidine kinase in a reporter-gene assay (RGA). In kind it is functional.
Assay [4] in a line: Compound was tested for inhibition of […] ([…]).
A further assay relates to T-cell. Nature of the assay: Compound was tested for inhibition of IL-2 secretion in mouse T cell line. In kind it is functional, cell-based.

pIC50, pKi: −log10 of the molar value.

The pKi is −log10 of the Ki, conventionally taken in molar units. What is called pIC50 is the IC50 on a negative log10 scale, so that one unit is a factor of ten.

`C[C@@]12C(=O)OC(=O)[C@]1(C)[C@H]1CC[C@@H]2O1` [CANTHARIDIN]: the pKi is 4.97 in assay [1] and 7.19 in assay [2].
As to `O=C1OC(=O)[C@H]2[C@@H]1[C@@H]1CC[C@H]2O1` [DEMETHYL-CANTHARIDIN], the pIC50 in the assay with Jurkat is less than 4.66; in assay [3], 4.00; in assay [2] it was 6.01; in assay [4], 5.30. For the same compound, the pKi in assay [1] is 5.48; in assay [2], 6.70.
For `CCOC(=O)[C@@H]1[C@H](C(=O)OCC)[C@H]2CC[C@@H]1O2`, the pKi in assay [1] was less than 4.00.
Take `C/C=C/C[C@@H](C)[C@@H](O)[C@H]1C(=O)N[C@@H](CC)C(=O)N(C)CC(=O)N(C)[C@@H](CC(C)C)C(=O)N[C@@H](C(C)C)C(=O)N(C)[C@@H](CC(C)C)C(=O)N[C@@H](C)C(=O)N[C@H](C)C(=O)N(C)[C@@H](CC(C)C)C(=O)N(C)[C@@H](CC(C)C)C(=O)N(C)[C@@H](C(C)C)C(=O)N1C` [CYCLOSPORINE]: the pIC50 in the assay on Jurkat was 8.10.
Turning to `O=C(O)[C@@H]1[C@H](C(=O)O)[C@H]2CC[C@@H]1O2`, the pIC50 in the assay with Jurkat was less than 4.00; in assay [3], 4.38. In addition, the pKi was 5.52 in assay [1] and 6.77 in assay [2].
Take `CN(C)C(=O)[C@H]1[C@@H](C(=O)O)[C@@H]2CC[C@H]1O2`: the negative logarithm of the IC50 (pIC50) with Jurkat was 5.33; in assay [3], 4.00; in the assay with T-cell it was 5.30. For the same compound, the pKi is 5.56 in assay [1] and 6.74 in assay [2].
As to `COC(=O)[C@H]1[C@@H](C(=O)O)[C@@H]2CC[C@H]1O2` (single isomer, unassigned), the pKi in assay [1] was less than 4.00.
